Consider one molecule from PMC9535023, “Inhibition of phospholipase D1 induces immunogenic cell death and potentiates cancer immunotherapy in colorectal cancer” (Experimental & Molecular Medicine, 2022).

Series [1] concerns DLD1 cells. The experiment in a line: Sphere formation assay. The series is classed as cell-based. Particulars: limiting dilution assays. The procedure:
DLD1 cells were cultured in DMEM/F-12 with epidermal growth factor (20 ng/mL), basic fibroblast growth factor (20 ng/mL), and B27 supplements in noncoated dishes. For serial passaging, the sphere cells were dissociated into single cells with Accutase (Invitrogen) once every 4–7 days and incubated. After the secondary generation, the DLD1 sphere cells were used for the experiments. […] The cells were fixed with 4% paraformaldehyde, and sphere formation was calculated from 10 positions in each well by an Olympus BX53 microscope and cellSens image acquisition software (Olympus).

The subject of series [2] is HCT 116 cells. Put plainly: Immunoblotting of β-catenin and its target genes. The series is classed as cell-based. Particulars: time- and dose-dependent, 1% serum. On the procedure:
(§1) As previously described, lysates from cells or colorectal cancer (CRC) tissues were analyzed by immunoprecipitation, and/or Western blotting was performed as described previously. The antibodies used are listed in Supplementary Table 5. A polyclonal anti-PLD antibody that recognizes both PLD1 and PLD2 was generated, as previously described. The use of human CRC tissue samples was approved by the Institutional Review Board of Pusan National University, Korea (PNU IRB/2011-6).

For series [3], the system named is DLD1 cells. The experiment in a line: Flow cytometry of CD44 and CD133. The series is classed as cell-based. The conditions noted are these: dose-dependent, mean fluorescence intensity.
For series [4], the target named is T1, hERG K^+ channel (Homo sapiens, UniProt Q12809).
T1 construct: expressed in transfected cells; host or cells: HEK293
T1 sequence (Q12809 whole entry): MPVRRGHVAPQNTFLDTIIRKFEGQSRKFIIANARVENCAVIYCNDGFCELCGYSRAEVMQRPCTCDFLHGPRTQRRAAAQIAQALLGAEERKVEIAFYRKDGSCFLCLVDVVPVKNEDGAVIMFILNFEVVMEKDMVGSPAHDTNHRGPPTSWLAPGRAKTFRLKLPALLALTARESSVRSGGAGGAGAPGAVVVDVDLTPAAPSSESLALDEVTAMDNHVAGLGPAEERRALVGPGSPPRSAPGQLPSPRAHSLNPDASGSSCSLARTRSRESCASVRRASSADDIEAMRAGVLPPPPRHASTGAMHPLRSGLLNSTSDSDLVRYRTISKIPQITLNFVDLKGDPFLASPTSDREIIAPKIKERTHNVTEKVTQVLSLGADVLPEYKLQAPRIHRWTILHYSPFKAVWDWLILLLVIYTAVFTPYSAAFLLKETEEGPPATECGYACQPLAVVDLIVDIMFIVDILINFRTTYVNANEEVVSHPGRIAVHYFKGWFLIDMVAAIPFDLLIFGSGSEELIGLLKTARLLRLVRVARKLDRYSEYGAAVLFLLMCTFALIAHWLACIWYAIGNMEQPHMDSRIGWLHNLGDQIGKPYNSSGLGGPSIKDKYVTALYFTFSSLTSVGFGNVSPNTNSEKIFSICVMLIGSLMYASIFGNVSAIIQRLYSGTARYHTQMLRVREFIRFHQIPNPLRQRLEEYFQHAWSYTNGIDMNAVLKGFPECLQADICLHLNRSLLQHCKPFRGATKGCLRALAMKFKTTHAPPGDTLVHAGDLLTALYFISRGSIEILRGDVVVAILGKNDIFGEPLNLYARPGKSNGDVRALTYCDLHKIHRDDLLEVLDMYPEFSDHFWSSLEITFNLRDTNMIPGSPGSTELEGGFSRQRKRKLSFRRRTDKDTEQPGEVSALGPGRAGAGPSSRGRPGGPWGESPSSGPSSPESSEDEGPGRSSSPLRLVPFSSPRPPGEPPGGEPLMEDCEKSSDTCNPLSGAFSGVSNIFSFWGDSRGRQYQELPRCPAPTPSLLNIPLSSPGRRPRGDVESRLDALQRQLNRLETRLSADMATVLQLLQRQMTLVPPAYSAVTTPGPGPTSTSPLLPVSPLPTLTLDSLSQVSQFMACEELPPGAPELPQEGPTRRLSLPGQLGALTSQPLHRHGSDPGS
Put plainly: hERG patch-clamp assay in HEK293 cells transfected with hERG. The series is classed as cell-based. On the procedure:
(§2) Both hERG assays were conducted as described previously.

For series [5], the system named is FHC cells. The experiment in a line: Cell cycle analysis (BrdU/7-AAD flow cytometry), FHC. The series is classed as cell-based. Particulars: FHC normal fetal colonic mucosa cells. The procedure:
(§3) For cell cycle analysis, the cells were treated with Α3373 or 5-FU. The cells were labeled with 10 μΜ bromodeoxyuridine (BrdU) for 2 h. Subsequently, the cells were stained with 7-aminoactinomycin D (7-AAD, Invitrogen) and a fluorescein isothiocyanate (FITC)-conjugated anti-BrdU antibody (Invitrogen). Apoptotic cells were detected using an Annexin V-FITC Apoptosis Detection Kit (BD Biosciences). The cells were analyzed using BD FACSAria III (BD Biosciences), and data analysis was performed using FlowJo v10.0 (BD Biosciences).

Series [6] deals with CRC cells. The experiment in a line: Cell migration and invasion assay. The format is cell-based. The procedure: For the cell migration assay, the cells were added to an 8 μm pore transwell polycarbonate chamber (SPL Life Science). After 24 h of incubation, the number of cells that migrated through the membrane into the lower chamber was counted. For the cell invasion assay, Matrigel (dilution at 1:5; BD Biosciences) was added to the Transwell chambers and incubated for 5 h. The cells were then seeded; after 24 h of incubation, the invaded cells on the bottom of the membrane were fixed with 10% formalin for 20 min and stained with 0.1% crystal violet for 3 h. The extent of invasion was expressed as the average number of cells per microscopic field.

For series [7], the system named is PLD. Put plainly: PLD activity assay in HCT 116 cells. The series is classed as cell-based. The conditions noted are these: at 10 μM (Fig. 1c). The procedure:
Cells were labeled with [H^3] myristic acid, and PLD activity was assessed by measuring the formation of [H^3] phosphatidylbutanol, which is the product of PLD-mediated transphosphatidylation, in the presence of 1-butanol, as previously described.

Series [8] relates to CRC cells. Put plainly: Measurement of HMGB1 release (ELISA). The format is cell-based. On the procedure:
For the quantitative determination of extracellular ATP, the cells were treated with Α3373. Extracellular release of ATP was assessed using the ENLITEN ATP Assay kit (Promega) according to the manufacturer’s instructions. For the HMGB1 level measurement, the supernatants of the cells were prepared by removing insoluble materials by centrifugation at 10,000 × g for 3 min at 4 °C. The levels of HMGB1 were measured using an HMGB1 detection kit (Chondrex) according to the manufacturer’s instructions.

The target of series [9] is hERG channel (Homo sapiens, UniProt Q12809). The experiment in a line: hERG ligand-binding assay. Particulars: HEK293 cells transfected with hERG. The procedure:
as §2

In series [10] the test system is MC38 cells. The experiment in a line: MC38 syngeneic tumor model. The series is classed as in vivo, mouse. The procedure:
manner. The incision was extended to 2–3 cm, and the cecum was exposed. 2 × 10^5 MC38-GFP-Luciferas e cells were suspended in 50 µL PBS and injected into the cecum. Seven days after cell injection, 10 mg/kg A3373 was orally administered to the mice daily for 4 weeks.
A colon can cer syngenei c model was established using 6- weeks-old C57B L/6 male mice. 2 × 10^5 MC38 cells were suspended in 50µ l PBS and subcutaneously injected into the flanks of the mice. After 7 days of cell injection, mice were randomized into four groups and all groups were treated as follows for 2 weeks: vehicle grou p, mice were IP administered vehicle every day; A3373 group, mice were IP administrated with 10 mg/kg A3373 every day; α PD-L1 antibody group, mice were IP administrated with 5 mg/kg anti-mouse PD-L1 (BioXcell) eve ry two days; A3373 + αPD-L1 antibody group, mice received A3373 (10 mg/kg) daily with anti - mouse PD-L1 (5 mg/kg) every 2 days. Tumor volume was measured in MC38 cells subcutaneous injected mice every 2 days after 7 days of cell injection. External tumor measurements were made using precision calipers, and tumor volume (TV) was calcul ated according to the following formula: TV = (W × L2)/2 (W = width and L = l ength).
. All animal procedu res were performed in accordance with the institutional guidelines for animal research and were approved by the Institutional Animal Care and Use Committee of Yonsei University (IACUC- […]
In a colon cancer orthotropic model, tumor-infiltrating lymphocytes (TILs) were isolated from the tumor tissue 30 days after cell injection. […]
After 20 minutes of incubation, 0.1 M EDTA was added to prevent clumping. Cells were filtered through a 40 µm nylon mesh, single-cell suspensions were counted and used for the experiments. […] Isolated tumor cells were cultured for one passage to change the immunocompromised phenotype and assessed using flow cytometry. […]

For series [11], the system named is β-catenin/TCF-4 complex. The experiment in a line: Immunoprecipitation of β-catenin/TCF-4. The format is cell-based. The conditions noted are these: 2 μM, 12 h, CRC cells. The procedure: as §1
Series [12] deals with DLD1 cells. The experiment in a line: Apoptosis assay (annexin V flow cytometry), DLD1. The series is classed as cell-based. On the procedure:
as §3

Series [13] concerns HCT116 cells. The experiment in a line: miR-4496 promoter and β-catenin 3′-UTR luciferase reporters. The format is cell-based.
Series [14] has as its system CRC cells. Put plainly: TCF transactivation in CRC cells with an active Wnt pathway. The format is cell-based.

hERG channel, sequence (Q12809 whole entry): as above

`O=C(Nc1cc(C(F)(F)F)cc(C(F)(F)F)c1)c1cc2cc(F)ccc2[nH]1` [Compound A3373]: the sphere-forming capacity result in [1] was “significantly decreased the sphere-forming capacity”. In addition, the “protein levels of β-catenin and its target genes (PLD1, CD133, CD44, c-Myc, cyclin D1)” value in series [2] was “greatly reduced the protein levels of β-catenin and its target genes”. Moreover, the “expression of CD44 and CD133” value in series [3] is “significantly decreased the expression of CD44 and CD133”. Further, in series [4], the IC50 was over 50 µM. In addition, in [5], the “cell cycle / S phase in FHC cells, in words” value is “had no effect on FHC cells”. In [6], the “Wnt3a-induced migration and invasion” value is “significantly suppressed Wnt3a-induced migration and invasion”. The molecule further showed a PLD activity remained in series [7] of 20.6%. Further, the “release of HMGB1, in words” value in series [8] is listed as “increased the release of HMGB1 in a dose-dependent manner”. In addition, in [9], testing at 10 µM gave an inhibition of 3.4%. In addition, in series [10] (A3373 10 mg/kg and/or αPD-L1), the tumor formation entry was “significantly decreased tumor formation”. The “CD8+ T-cell-mediated killing of MC38-GFP-Luc cells, luciferase activity” value in series [10] (CD8+ T cells from treated tumor-bearing mice, increasing E/T ratio) is recorded as “significant reduction in luciferase activity”. Also, in series [10] (tumors at maximum volume, flow cytometry, vehicle ~20%), the “percentage of immune cells (CD45+ cells) in total cells” value was about 50%. Moreover, in series [11], the “endogenous interaction between β-catenin and TCF-4” value was “disrupted the endogenous interaction between β-catenin and TCF-4”. In addition, the “apoptosis of CRC cells, in words” value in series [12] is reported as “significantly promoted the apoptosis of CRC cells alone”. Besides, in [13], the “luciferase activity of the β-catenin 3′-UTR reporter” value is given as “significantly suppressed the luciferase activity” and the “promoter activity of miR-4496” value is “increased the promoter activity of miR-4496”. The “TCF transactivation in CRC cells” value in series [14] was “significantly suppressed TCF transactivation”.
